Data reported in ChEMBL document CHEMBL1201862, “PubChem BioAssay data set” (2004).
Activity calls are given as the source filed them.

Columns and labels:
[1] = biological target: T1, Dual specificity protein phosphatase 6 (Rattus norvegicus, UniProt Q64346); assay: inhibition of rat DUSP6 enzyme activity – biochemical, in vitro, primary screen (AID 425)
T1 sequence (Q64346 whole entry): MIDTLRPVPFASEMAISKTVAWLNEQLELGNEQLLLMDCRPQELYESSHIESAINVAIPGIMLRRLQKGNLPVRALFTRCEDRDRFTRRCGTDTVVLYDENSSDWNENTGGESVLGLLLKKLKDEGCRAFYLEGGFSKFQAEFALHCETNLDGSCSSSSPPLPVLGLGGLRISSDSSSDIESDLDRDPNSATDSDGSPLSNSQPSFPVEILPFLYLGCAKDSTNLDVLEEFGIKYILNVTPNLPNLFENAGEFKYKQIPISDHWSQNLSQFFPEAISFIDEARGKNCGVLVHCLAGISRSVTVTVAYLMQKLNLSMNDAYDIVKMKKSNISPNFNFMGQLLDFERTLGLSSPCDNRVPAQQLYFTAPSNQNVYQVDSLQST

[2] = biological target: Intestinal-type alkaline phosphatase (Homo sapiens, UniProt P09923); assay: activation of human intestinal alkaline phosphatase – biochemical, dose response (AID 488873); format: functional
[3] = biological target: Beta-adrenergic receptor kinase 1 (Homo sapiens, UniProt P25098); assay: aptamer displacement from bead-bound GRK2 – biochemical, cherry pick 1, bead flow cytometry, dose response (AID 504500)
[4] = biological target: Intestinal-type alkaline phosphatase (Mus musculus, UniProt P24822); assay: mouse intestinal alkaline phosphatase activators, dose response, biochemical, luminescence, uHTS hits (AID 488783); format: functional
[5] = biological target: T2, Alkaline phosphatase, tissue-nonspecific isozyme (Homo sapiens, UniProt P05186); assay: activation of tissue-nonspecific alkaline phosphatase – biochemical, TNAP isozyme, mouse IAP uHTS hits, selectivity assay for mouse IAP activator project, dose response (AID 488880); format: functional
T2 sequence (P05186 whole entry): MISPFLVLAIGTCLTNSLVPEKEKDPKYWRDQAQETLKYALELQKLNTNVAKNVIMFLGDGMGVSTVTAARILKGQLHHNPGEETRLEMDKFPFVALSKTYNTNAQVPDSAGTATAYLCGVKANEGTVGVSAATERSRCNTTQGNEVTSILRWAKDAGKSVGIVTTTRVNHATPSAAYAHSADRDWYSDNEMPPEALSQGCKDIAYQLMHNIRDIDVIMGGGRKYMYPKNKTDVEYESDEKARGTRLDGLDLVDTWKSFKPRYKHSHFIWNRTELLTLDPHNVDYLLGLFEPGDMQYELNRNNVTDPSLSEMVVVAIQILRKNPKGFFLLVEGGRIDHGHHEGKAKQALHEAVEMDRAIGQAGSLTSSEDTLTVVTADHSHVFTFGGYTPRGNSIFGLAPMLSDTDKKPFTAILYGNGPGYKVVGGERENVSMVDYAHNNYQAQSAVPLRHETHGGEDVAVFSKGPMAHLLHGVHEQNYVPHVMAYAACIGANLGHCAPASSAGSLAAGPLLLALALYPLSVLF

HEK293 [6] = assay: HEK293T cell viability loss, resazurin readout – resazurin fluorescence, cytotoxicity control for NF-kB activator project, SAR follow-up (AID 493251); format: functional, cell-based; conditions: Homo sapiens
Jurkat = assay: SAR Analysis of small molecule inhibitors of T-cell specific antigen receptor-induced NF-kB activation in a Jurkat cell line using a luminescence assay - Set 2. [Related pubchem assays (depositor defined):AID435003, AID435012, AID465]; format: functional, cell-based; conditions: Homo sapiens
HEK293 [7] = assay: SAR Analysis of small molecule inhibitors of T-cell specific antigen receptor-induced NF-kB activation in a HEK-293T cell line using a luminescence assay - Set 2. [Related pubchem assays (depositor defined):AID435003, AID435012, AID489026]; format: functional, cell-based; conditions: Homo sapiens
[8] = Luminescence Cell-Based Dose Response HTS to Identify Activators of Luciferase Translation or Activity in H4 […] Cells. [Related pubchem assays: 1829 (Project Summary), 1814 (Primary HTS)]; format: functional
H4 = assay: Luminescence Cell-Based Dose Response HTS to Identify Activators of 5'UTR Stem-Loop Driven Prion Protein mRNA Translation in H4 Neuroglioblastoma Cells. [Related pubchem assays: 1829 (Project Summary), 1814 (Primary HTS)]; format: functional; conditions: Homo sapiens
HeLa = assay: ATP-based viability loss in HeLa cells – cell-based, CellTiter-Glo luminescence, cherry-pick samples, cytotoxicity control for MITF activator project, dose response (AID 540259); format: functional; conditions: Homo sapiens

Chain of Beta-adrenergic receptor kinase 1 (P25098 whole entry): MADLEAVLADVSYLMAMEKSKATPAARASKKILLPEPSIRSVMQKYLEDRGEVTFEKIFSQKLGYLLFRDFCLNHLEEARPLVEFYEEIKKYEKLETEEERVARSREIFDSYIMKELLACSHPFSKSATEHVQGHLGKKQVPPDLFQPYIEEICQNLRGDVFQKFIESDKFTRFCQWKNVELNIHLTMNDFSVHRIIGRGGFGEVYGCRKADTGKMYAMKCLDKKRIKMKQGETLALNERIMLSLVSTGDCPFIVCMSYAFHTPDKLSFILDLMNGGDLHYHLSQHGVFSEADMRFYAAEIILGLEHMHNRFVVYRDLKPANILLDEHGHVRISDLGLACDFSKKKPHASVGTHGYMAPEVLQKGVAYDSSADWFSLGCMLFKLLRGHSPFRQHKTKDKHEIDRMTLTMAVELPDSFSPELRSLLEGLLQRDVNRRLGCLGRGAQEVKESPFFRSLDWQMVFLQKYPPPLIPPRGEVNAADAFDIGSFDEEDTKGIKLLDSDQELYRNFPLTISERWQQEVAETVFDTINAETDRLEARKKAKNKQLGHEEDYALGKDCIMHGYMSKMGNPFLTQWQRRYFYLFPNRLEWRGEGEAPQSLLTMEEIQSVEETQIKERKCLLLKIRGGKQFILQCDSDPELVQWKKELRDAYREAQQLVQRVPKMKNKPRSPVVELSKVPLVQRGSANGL
Chain of Intestinal-type alkaline phosphatase (Homo sapiens, UniProt P09923) (P09923 whole entry): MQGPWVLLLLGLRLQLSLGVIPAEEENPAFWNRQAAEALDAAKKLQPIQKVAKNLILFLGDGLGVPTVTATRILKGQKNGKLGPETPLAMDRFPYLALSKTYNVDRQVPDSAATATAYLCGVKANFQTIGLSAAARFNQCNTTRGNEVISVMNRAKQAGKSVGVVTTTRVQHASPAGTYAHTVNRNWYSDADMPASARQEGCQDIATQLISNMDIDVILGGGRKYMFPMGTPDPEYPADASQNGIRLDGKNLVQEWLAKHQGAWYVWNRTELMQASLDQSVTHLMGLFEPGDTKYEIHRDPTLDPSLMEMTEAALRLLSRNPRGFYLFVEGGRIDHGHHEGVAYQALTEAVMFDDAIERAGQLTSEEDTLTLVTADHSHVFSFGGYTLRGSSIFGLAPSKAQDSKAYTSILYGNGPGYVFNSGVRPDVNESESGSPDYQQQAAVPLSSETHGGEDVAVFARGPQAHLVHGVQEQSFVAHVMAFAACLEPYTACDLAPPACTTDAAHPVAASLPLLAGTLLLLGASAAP
Chain of Intestinal-type alkaline phosphatase (Mus musculus, UniProt P24822) (P24822 whole entry): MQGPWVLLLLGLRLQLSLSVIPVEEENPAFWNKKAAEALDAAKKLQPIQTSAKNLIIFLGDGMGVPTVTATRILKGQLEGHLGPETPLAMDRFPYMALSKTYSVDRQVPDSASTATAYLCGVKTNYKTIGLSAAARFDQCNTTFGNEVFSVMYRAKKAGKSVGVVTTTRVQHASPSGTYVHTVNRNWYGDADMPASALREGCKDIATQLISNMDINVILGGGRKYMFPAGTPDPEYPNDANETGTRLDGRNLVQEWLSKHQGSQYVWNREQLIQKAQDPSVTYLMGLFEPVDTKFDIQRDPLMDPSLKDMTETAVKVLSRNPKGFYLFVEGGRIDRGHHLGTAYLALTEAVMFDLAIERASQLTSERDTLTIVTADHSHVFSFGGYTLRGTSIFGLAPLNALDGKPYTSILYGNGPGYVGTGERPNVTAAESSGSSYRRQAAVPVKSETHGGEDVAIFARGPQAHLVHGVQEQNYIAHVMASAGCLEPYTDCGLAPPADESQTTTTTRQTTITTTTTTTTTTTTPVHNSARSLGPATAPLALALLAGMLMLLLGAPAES

## CCOC(=O)C(C)Sc1nc2c(c(=O)[nH]c(=O)n2C)n1C/C=C(/C)Cl (stereo unspecified)
[1]
  IC50: > 10 µM (not active)
[2]
  EC50: 74.2 µM (active)
[3]
  EC50: 22.1 µM (inactive)
[4]
  EC50: 69.8 µM (active)
[5]
  EC50: 66.9 µM (active)

## Cc1ccc(C(NC(=O)C2CCCCC2)c2ccc3cccnc3c2O)cc1 (stereo unspecified)
HEK293 [6]
  IC50: 21 µM (inactive)
Jurkat
  IC50: 2.62 µM (active)
HEK293 [7]
  IC50: 4.93 µM (active)

## CCCc1cc2c(=O)c(-c3ccccn3)coc2cc1OC
[8]
  EC50: 0.182 µM (active)
H4
  EC50: > 120 µM (not active)
HeLa
  AC50: 73.5 µM (active)
